Patent US8173360B2, “Cell death inhibitor” (Takeda Pharmaceutical Company Limited, priority 2002, dated 2012)

Key:
[1] = tested on: primary cardiomyocytes derived from rat neonates; assay: Inhibition of serum depletion-induced myocardial cell death (WST-8 viable cell count); format: cell-based
Source text: Neonates (within one day after birth) were obtained from pregnant Wistar rats purchased from Charles River Japan, Inc. and anesthetized with ether. After sterilization with 70% ethanol, the heart was removed with forceps. After washing with phosphate buffered saline (manufactured by Takara Co., Ltd., T900), the heart removed was minced with surgical scissors. The pieces of tissue were washed 4 or 5 times with phosphate buffered saline to remove most of non-cardiomyocytes derived from blood. To the pieces of tissue corresponding to 10 neonates, 5 ml of an enzyme solution [which is a solution of trypsin (1.25 mg) (manufactured by Difco) and collagenase (0.25 mg) (manufactured by Sigma) in phosphate buffer (1 ml)] was added. The mixture was stirred for 15 minutes with a stirrer while maintaining at 37° C. After 2.5 ml of the enzyme solution was replenished, the mixture was stirred for further 15 minutes, and this procedure was repeated twice. Subsequently, Medium 199 (manufactured by Gibco) containing 10% fetal cow serum (manufactured Biowicker, Inc.) was added to the mixture in a half volume of the enzyme solution to terminate the enzymatic reaction. After filtering through a cell strainer (manufactured by Falcon), the mixture was centrifuged at 400×g for 5 minutes to collect the cells.
The cells were then recovered, filtered through a cell strainer and centrifuged at 400×g for 5 minutes to collect primary cardiomyocytes derived from rat neonates.
Next, the primary cardiomyocytes derived from rat neonates (corresponding 10 neonates) were suspended in 2 ml of a hypotonic solution [solution obtained by dissolving NH4Cl (8.29 g), KHCO3 (1.0 g) and EDTA/2Na (ethylenediaminetetraacetic acid disodium; manufactured by Dojin Chemical Laboratory) (37 mg) in water (1 L)]. The suspension was allowed to stand for 3 minutes to disrupt erythrocytes. To the suspension 10 ml of Medium 199 containing 10% fetal cow serum was added, and the mixture was centrifuged at 400×g for 5 minutes to collect the primary cardiomyocytes derived from rat neonates. […] An aliquot of the cardiomyocytes suspension obtained was taken out and 0.3% trypan blue was added thereto. The mixture was gently stirred and the count of cardiomyocytes was counted with a hemocytometer.
Incubation was continued for further 4 days to induce cell death. […]
The mean value (±SD) in the minimum effective concentration of Compound 1 required for inhibiting the cell death was 0.015±0.011 μM. The concentration of Compound 1 required for increasing the mean cell count by 30% when compared to the cell count without the addition of Compound 1 was determined to be the minimum effective concentration. […]

[2] = tested on: primary cardiomyocytes derived from rat neonates; assay: Inhibitory activity against myocardial cell death induced by doxorubicin; format: cell-based; details: doxorubicin 200 μM, 18 hours; sample added 3 hours before
Protocol: Medium 199 and a sample to be tested were added thereto, followed by incubation for 3 hours. After the incubation, doxorubicin (DOX: final concentration of 200 μM) was added to the mixture, which was incubated for further 18 hours to induce cell death. Subsequently, fetal cow serum was added thereto to reach 10%. […] Thus, the myocardial cell death inhibitory activity was examined.

[3] = tested on: Normal human umbilical vein endothelial cells; assay: Inhibitory activity against serum depletion-induced cell death of vascular smooth muscle; format: cell-based; details: serum-free MCDB131 medium, 3 days, WST-8
heme oxygenase-1 = assay: Heme oxygenase-1 production-increasing activity (western blotting); format: cell-based, rat; details: for Increasing Rate of Production (heme oxygenase-1): 24 hours, without compound = 1
Protocol: The plate was washed 3 times with Medium 199 medium to remove serum. Compound I was added to the plate, followed by incubation for 24 hours at 37° C. and 5% CO2. After completion of the incubation, the cardiomyocytes were washed once with PBS(−), and 100 μl of cell lysis buffer [10 mM Tris(hydroxymethyl)aminomethane, pH 7.4, 150 mM NaCl, 1 mM EDTA.2Na, 1 mM ethylene glycol-bis(β-aminoethylether]-N,N,N′,N′-tetraacetic acid, 0.5 mM (p-aminophenyl)methanesulfonyl fluoride hydrochloride, 200 μM sodium β-glycerophosphate n-hydrate, 20 mM NaF, 2 mM sodium diphosphate decahydrate, 10 μg/ml aprotinin, 10 μg/ml leupeptin, 1% Triton X-100, 0.5% Nonidet P40, 0.1% sodium dodesyl sulfate) was added thereto. After the cell debris was scraped from the plate using a cell scraper, the cell lysis buffer was recovered. The recovered cell lysis buffer was mixed with a sample buffer (Tris-SDS-ME Sample Buffer; manufactured by Daiichi Pure Chemicals Co., Ltd.) in an equal volume. The mixture was heat-treated at 95° C. for 5 minutes, followed by SDS polyacrylamide electrophoresis using Multigel (manufactured by Daiichi Pure Chemicals Co., Ltd.). Next, nitrocellulose membrane (Hybond-ECL; manufactured by Amersham Pharmacia Biotech) soaked in a blotting buffer [0.1 M Tris(hydroxymethyl)aminomethane, 0.192 M glycine, 20% ethanol] for at least 10 minutes, blotting filter paper, dialysis membrane and gel were set on Horize-Blot (manufactured by ATTO, Co.) and treated with 100 mA/gel (64 cm^2) for an hour to adsorb the protein in the gel onto the nitrocellulose membrane. Thereafter, the nitrocellulose membrane was soaked in a blocking buffer [TTBS buffer (20 mM Tris-HCl, pH 7.6, 0.137 M NaCl, 0.1% Tween-20) containing 5% skimmed milk powders] and stirred at room temperature for an hour for blocking. […] After completion of the reaction, the membrane was washed 3 times with TTBS buffer and the amount of protein was determined using a western blotting detection reagent (ECL+Plus; manufactured by Amersham) and Hyperfilm ECL (manufactured by Amersham). […]

O=c1nc(-c2ccccn2)sc2ccccc12 [Compound 1, 2-(2-Pyridyl)-4H-1,3-benzothiazin-4-one]
minimum effective concentration required for inhibiting the cell death ([1]; concentration increasing mean cell count by 30% vs no compound, serum-free 4 days, mean ±SD, 3 runs): 0.015 ± 0.011 µM | myocardial cell death inhibitory activity ([1]; serum depletion, 4 days, WST-8 viable cell count): exhibit the activity of inhibiting myocardial cell death | inhibition of myocardial cell death induced by doxorubicin [2]: exhibits the activity of inhibiting myocardial cell death induced by doxorubicin | inhibition of cell death induced by serum depletion [3]: exhibits the activity of inhibiting vascular smooth muscle cell death induced by serum depletion | Increasing Rate of Production (heme oxygenase-1) (heme oxygenase-1; 0.04 μM): 1.6 | Increasing Rate of Production (heme oxygenase-1) (heme oxygenase-1; 0.4 μM): 2.5 | production amount of heme oxygenase-1 (heme oxygenase-1; statement in words): increases the production amount of heme oxygenase-1
